Assay [1] addresses T1, RNF213 (∆N338) (Mus musculus, UniProt E9Q555).
T1 construct: N-terminal 338 residues deleted (∆N338), recombinant; biotin UBE2L3~Ub activity-based probe as read-out
Briefly: antagonism of ATPγS-dependent activation, ABP labelling. The format is biochemical. The following applies: 900 μM ADP against ATPγS titration; pH 7.5, 2.5 mM MgCl2, 30 °C.

Assay [2] concerns the target T2, RNF213-UBE2L3~Ub complex (RNF213-ABP) (Mus musculus, UniProt E9Q555).
T2 construct: full-length murine RNF213 covalently linked at Cys4462 to human UBE2L3~Ub activity-based probe; ubiquitin and RZ domain not resolved; with Ubiquitin-conjugating enzyme E2 L3 (Homo sapiens); Ubiquitin (Homo sapiens)
Briefly: cryo-EM structure, […] Å. The format is binding. The following applies: ADP modelled in AAA3 and AAA4; ATPγS-stimulated labelling reaction applied directly to grid.

Assay [3] addresses T3, RNF213 (Mus musculus, UniProt E9Q555).
T3 construct: full-length recombinant protein, about 600 kDa, N-terminal Strep(II) tag in the pulldown construct
In words: UBE2L3~Ub discharge assay. The format is biochemical. The following applies: activator; 1 mM nucleotide, 0.025 μM E3, 20 μM E2~Ub.

Assay [4] has as its target T4, RNF213 (Mus musculus, UniProt E9Q555, E2449Q/E2806Q).
T4 construct: full-length recombinant protein, about 600 kDa, N-terminal Strep(II) tag in the pulldown construct
Briefly: cryo-EM structure, […] Å. The format is binding. The following applies: ATP modelled in AAA4, AAA3 empty; WB34 mutant.

Assay [5] concerns the target T1, RNF213 (∆N338). In words: activation of RNF213 labelling by biotin UBE2L3~Ub activity-based probe, blot quantification. Type of assay: biochemical.

The values below come from paper PMC12075652, “ATP functions as a pathogen-associated molecular pattern to activate the E3 ubiquitin ligase RNF213” (Nature Communications, 2025).

On to `Nc1ncnc2c1ncn2[C@@H]1O[C@H](COP(=O)(O)OP(=O)(O)O)[C@@H](O)[C@H]1O` [ADP], for which the “antagonism of ATPγS-dependent activation, ABP labelling” value on RNF213 (∆N338) [1] is given as “These data suggest that ADP inhibits ATP-dependent activation”. Besides, the “cryo-EM structure, 3.8 Å” value in assay [2] was “new density at the AAA3 and AAA4 sites allowed modeling of ADP”.
For the molecule `Nc1ncnc2c1ncn2[C@@H]1O[C@H](COP(=O)(O)OP(=O)(O)NP(=O)(O)O)[C@@H](O)[C@H]1O` [AMP-PNP], the “UBE2L3~Ub discharge assay” value on RNF213 [3] is “(ATPγS) and adenylyl-imidodiphosphate (AMP-PNP) also stimulated E2~Ub discharge”.
Consider `Nc1ncnc2c1ncn2[C@@H]1O[C@H](COP(=O)(O)OP(=O)(O)OP(=O)(O)O)[C@@H](O)[C@H]1O` [ATP], for which the “cryo-EM structure, 4.5 Å” value at RNF213 [4] is “Although ATP could be modeled into AAA4, AAA3 was empty”. The “UBE2L3~Ub discharge assay” value at RNF213 [3] is listed as “E3 activity was enhanced by ATP, but not by ADP or AMP”.
Molecule `Nc1ncnc2c1ncn2[C@@H]1O[C@H](COP(=O)(O)OP(=O)(O)OP(O)(O)=S)[C@@H](O)[C@H]1O` [ATPγS] showed a concentration giving a half-maximal response (EC50) at RNF213 (∆N338) [5] of 85 µM. Further, the “UBE2L3~Ub discharge assay” value on RNF213 [3] was “(ATPγS) and adenylyl-imidodiphosphate (AMP-PNP) also stimulated E2~Ub discharge”.
